Assay results from ChEMBL document CHEMBL3046407, “Toxicity of monoterpenes against larvae and adults of Colorado potato beetle, Leptinotarsa decemlineata Say (Coleoptera: Chrysomelidae)” (2007).

Assays:
[1] = test system: Leptinotarsa decemlineata; assay: Insecticidal activity against third-instar larval stage of Leptinotarsa decemlineata infested potato leaves assessed as mortality at 20 mg after 24 hr relative to control; type: functional
[2] = test system: Leptinotarsa decemlineata; assay: Insecticidal activity against third-instar larval stage of Leptinotarsa decemlineata infested potato leaves assessed as mortality at 10 mg after 24 hr relative to control; type: functional
[3] = test system: Leptinotarsa decemlineata; assay: Insecticidal activity against first-instar larval stage of Leptinotarsa decemlineata infested potato leaves assessed as mortality at 10 mg after 48 hr relative to control; type: functional
[4] = test system: Leptinotarsa decemlineata; type: functional, Instar larval stage
[5] = test system: Leptinotarsa decemlineata; type: functional, Instar larval stage; remark: listed apart in the source
[6] = test system: Leptinotarsa decemlineata; assay: Insecticidal activity against adult Leptinotarsa decemlineata infested potato leaves assessed as mortality at 20 mg after 96 hr relative to control; type: functional
[7] = test system: Leptinotarsa decemlineata; assay: Insecticidal activity against third-instar larval stage of Leptinotarsa decemlineata infested potato leaves assessed as mortality at 10 mg after 12 hr relative to control; type: functional
[8] = test system: Leptinotarsa decemlineata; assay: Insecticidal activity against adult Leptinotarsa decemlineata infested potato leaves assessed as mortality at 10 mg after 24 hr relative to control; type: functional
[9] = test system: Leptinotarsa decemlineata; assay: Insecticidal activity against adult Leptinotarsa decemlineata infested potato leaves assessed as mortality at 20 mg after 48 hr relative to control; type: functional
[10] = test system: Leptinotarsa decemlineata; assay: Insecticidal activity against adult Leptinotarsa decemlineata infested potato leaves assessed as mortality at 10 mg after 48 hr relative to control; type: functional
[11] = test system: Leptinotarsa decemlineata; assay: Insecticidal activity against first-instar larval stage of Leptinotarsa decemlineata infested potato leaves assessed as mortality at 10 mg after 12 hr relative to control; type: functional
[12] = test system: Leptinotarsa decemlineata; type: functional, Instar larval stage; remark: listed apart in the source
[13] = test system: Leptinotarsa decemlineata; assay: Insecticidal activity against adult Leptinotarsa decemlineata infested potato leaves assessed as mortality at 20 mg after 12 hr relative to control; type: functional
[14] = test system: Leptinotarsa decemlineata; assay: Insecticidal activity against first-instar larval stage of Leptinotarsa decemlineata infested potato leaves assessed as mortality at 20 mg after 24 hr relative to control; type: functional
[15] = test system: Leptinotarsa decemlineata; assay: Insecticidal activity against first-instar larval stage of Leptinotarsa decemlineata infested potato leaves assessed as mortality at 20 mg after 48 hr relative to control; type: functional
[16] = test system: Leptinotarsa decemlineata; assay: Insecticidal activity against first-instar larval stage of Leptinotarsa decemlineata infested potato leaves assessed as mortality at 20 mg after 96 hr relative to control; type: functional
[17] = test system: Leptinotarsa decemlineata; assay: Insecticidal activity against adult Leptinotarsa decemlineata infested potato leaves assessed as mortality at 20 mg after 24 hr relative to control; type: functional
[18] = test system: Leptinotarsa decemlineata; type: functional, Instar larval stage; remark: listed apart in the source
[19] = test system: Leptinotarsa decemlineata; assay: Insecticidal activity against third-instar larval stage of Leptinotarsa decemlineata infested potato leaves assessed as mortality at 20 mg after 12 hr relative to control; type: functional
[20] = test system: Leptinotarsa decemlineata; assay: Insecticidal activity against first-instar larval stage of Leptinotarsa decemlineata infested potato leaves assessed as mortality at 10 mg after 24 hr relative to control; type: functional
[21] = test system: Leptinotarsa decemlineata; assay: Insecticidal activity against first-instar larval stage of Leptinotarsa decemlineata infested potato leaves assessed as mortality at 10 mg after 96 hr relative to control; type: functional
[22] = test system: Leptinotarsa decemlineata; assay: Insecticidal activity against first-instar larval stage of Leptinotarsa decemlineata infested potato leaves assessed as mortality at 20 mg after 12 hr relative to control; type: functional
[23] = test system: Leptinotarsa decemlineata; assay: Insecticidal activity against adult Leptinotarsa decemlineata infested potato leaves assessed as mortality at 10 mg after 96 hr relative to control; type: functional
[24] = test system: Leptinotarsa decemlineata; assay: Insecticidal activity against adult Leptinotarsa decemlineata infested potato leaves assessed as mortality at 10 mg after 12 hr relative to control; type: functional
[25] = test system: Leptinotarsa decemlineata; assay: Insecticidal activity against second-instar larval stage of Leptinotarsa decemlineata infested potato leaves assessed as mortality at 10 ul after 12 hr relative to control; type: functional
[26] = test system: Leptinotarsa decemlineata; assay: Insecticidal activity against third-instar larval stage of Leptinotarsa decemlineata infested potato leaves assessed as mortality at 20 ul after 96 hr (reference value: 3.3 +/- 3.3%); type: functional
[27] = test system: Leptinotarsa decemlineata; assay: Insecticidal activity against third-instar larval stage of Leptinotarsa decemlineata infested potato leaves assessed as mortality at 10 ul after 96 hr (reference value: 3.3 +/- 3.3%); type: functional
[28] = test system: Leptinotarsa decemlineata; assay: Insecticidal activity against third-instar larval stage of Leptinotarsa decemlineata infested potato leaves assessed as mortality at 20 ul after 24 hr relative to control; type: functional
[29] = test system: Leptinotarsa decemlineata; assay: Insecticidal activity against adult Leptinotarsa decemlineata infested potato leaves assessed as mortality at 20 ul after 48 hr relative to control; type: functional
[30] = test system: Leptinotarsa decemlineata; assay: Insecticidal activity against second-instar larval stage of Leptinotarsa decemlineata infested potato leaves assessed as mortality at 10 ul after 96 hr (reference value: 3.3 +/- 3.3%); type: functional
[31] = test system: Leptinotarsa decemlineata; assay: Insecticidal activity against adult Leptinotarsa decemlineata infested potato leaves assessed as mortality at 20 ul after 12 hr relative to control; type: functional
[32] = test system: Leptinotarsa decemlineata; assay: Insecticidal activity against second-instar larval stage of Leptinotarsa decemlineata infested potato leaves assessed as mortality at 20 ul after 96 hr (reference value: 3.3 +/- 3.3%); type: functional
[33] = test system: Leptinotarsa decemlineata; assay: Insecticidal activity against second-instar larval stage of Leptinotarsa decemlineata infested potato leaves assessed as mortality at 10 ul after 24 hr (reference value: 3.3 +/- 3.3%); type: functional
[34] = test system: Leptinotarsa decemlineata; assay: Insecticidal activity against adult Leptinotarsa decemlineata infested potato leaves assessed as mortality at 20 ul after 24 hr relative to control; type: functional
[35] = test system: Leptinotarsa decemlineata; assay: Insecticidal activity against second-instar larval stage of Leptinotarsa decemlineata infested potato leaves assessed as mortality at 20 ul after 24 hr (reference value: 3.3 +/- 3.3%); type: functional
[36] = test system: Leptinotarsa decemlineata; assay: Insecticidal activity against second-instar larval stage of Leptinotarsa decemlineata infested potato leaves assessed as mortality at 20 ul after 12 hr relative to control; type: functional
[37] = test system: Leptinotarsa decemlineata; assay: Insecticidal activity against adult Leptinotarsa decemlineata infested potato leaves assessed as mortality at 10 ul after 12 hr relative to control; type: functional
[38] = test system: Leptinotarsa decemlineata; assay: Insecticidal activity against adult Leptinotarsa decemlineata infested potato leaves assessed as mortality at 10 ul after 48 hr relative to control; type: functional
[39] = test system: Leptinotarsa decemlineata; assay: Insecticidal activity against first-instar larval stage of Leptinotarsa decemlineata infested potato leaves assessed as mortality at 10 ul after 24 hr relative to control; type: functional
[40] = test system: Leptinotarsa decemlineata; assay: Insecticidal activity against first-instar larval stage of Leptinotarsa decemlineata infested potato leaves assessed as mortality at 10 ul after 48 hr relative to control; type: functional
[41] = test system: Leptinotarsa decemlineata; assay: Insecticidal activity against first-instar larval stage of Leptinotarsa decemlineata infested potato leaves assessed as mortality at 20 ul after 24 hr relative to control; type: functional
[42] = test system: Leptinotarsa decemlineata; assay: Insecticidal activity against second-instar larval stage of Leptinotarsa decemlineata infested potato leaves assessed as mortality at 10 ul after 48 hr (reference value: 3.3 +/- 3.3%); type: functional
[43] = test system: Leptinotarsa decemlineata; assay: Insecticidal activity against first-instar larval stage of Leptinotarsa decemlineata infested potato leaves assessed as mortality at 20 ul after 96 hr relative to control; type: functional
[44] = test system: Leptinotarsa decemlineata; assay: Insecticidal activity against adult Leptinotarsa decemlineata infested potato leaves assessed as mortality at 10 ul after 24 hr relative to control; type: functional
[45] = test system: Leptinotarsa decemlineata; assay: Insecticidal activity against third-instar larval stage of Leptinotarsa decemlineata infested potato leaves assessed as mortality at 10 ul after 12 hr relative to control; type: functional
[46] = test system: Leptinotarsa decemlineata; assay: Insecticidal activity against first-instar larval stage of Leptinotarsa decemlineata infested potato leaves assessed as mortality at 10 ul after 12 hr relative to control; type: functional
[47] = test system: Leptinotarsa decemlineata; assay: Insecticidal activity against first-instar larval stage of Leptinotarsa decemlineata infested potato leaves assessed as mortality at 20 ul after 12 hr relative to control; type: functional
[48] = test system: Leptinotarsa decemlineata; assay: Insecticidal activity against third-instar larval stage of Leptinotarsa decemlineata infested potato leaves assessed as mortality at 10 ul after 48 hr (reference value: 3.3 +/- 3.3%); type: functional
[49] = test system: Leptinotarsa decemlineata; assay: Insecticidal activity against second-instar larval stage of Leptinotarsa decemlineata infested potato leaves assessed as mortality at 20 ul after 48 hr (reference value: 3.3 +/- 3.3%); type: functional
[50] = test system: Leptinotarsa decemlineata; assay: Insecticidal activity against adult Leptinotarsa decemlineata infested potato leaves assessed as mortality at 20 ul after 96 hr relative to control; type: functional
[51] = test system: Leptinotarsa decemlineata; assay: Insecticidal activity against adult Leptinotarsa decemlineata infested potato leaves assessed as mortality at 10 ul after 96 hr relative to control; type: functional
[52] = test system: Leptinotarsa decemlineata; assay: Insecticidal activity against first-instar larval stage of Leptinotarsa decemlineata infested potato leaves assessed as mortality at 10 ul after 96 hr relative to control; type: functional
[53] = test system: Leptinotarsa decemlineata; assay: Insecticidal activity against third-instar larval stage of Leptinotarsa decemlineata infested potato leaves assessed as mortality at 10 ul after 24 hr relative to control; type: functional
[54] = test system: Leptinotarsa decemlineata; assay: Insecticidal activity against third-instar larval stage of Leptinotarsa decemlineata infested potato leaves assessed as mortality at 20 ul after 48 hr (reference value: 3.3 +/- 3.3%); type: functional
[55] = test system: Leptinotarsa decemlineata; assay: Insecticidal activity against first-instar larval stage of Leptinotarsa decemlineata infested potato leaves assessed as mortality at 20 ul after 48 hr relative to control; type: functional
[56] = test system: Leptinotarsa decemlineata; assay: Insecticidal activity against third-instar larval stage of Leptinotarsa decemlineata infested potato leaves assessed as mortality at 20 ul after 12 hr relative to control; type: functional

C=C1C2CCC(C2)C1(C)C (stereo unspecified) [CAMPHENE]
mortality [1]: 43.3% | mortality [2]: 0% | mortality [3]: 6.7% | mortality [4]: 10% | mortality [5]: 6.7% | mortality [6]: 76.7% | mortality [7]: 0% | mortality [8]: 13.3% | mortality [9]: 76.7% | mortality [10]: 13.3% | mortality [11]: 0% | mortality [12]: 50% | mortality [13]: 30% | mortality [14]: 23.3% | mortality [15]: 23.3% | mortality [16]: 26.7% | mortality [17]: 73.3% | mortality [18]: 46.7% | mortality [19]: 16.7% | mortality [20]: 0% | mortality [21]: 10% | mortality [22]: 13.3% | mortality [23]: 13.3% | mortality [24]: 6.7%

C=CC(=C)CCC=C(C)C [MYRCENE]
mortality [25]: 56.7% | mortality [26]: 76.7% | mortality [27]: 60% | mortality [28]: 70% | mortality [29]: 96.7% | mortality [30]: 93.3% | mortality [31]: 73.3% | mortality [32]: 100% | mortality [33]: 93.3% | mortality [34]: 90% | mortality [35]: 90% | mortality [36]: 73.3% | mortality [37]: 46.7% | mortality [38]: 100% | mortality [39]: 80% | mortality [40]: 93.3% | mortality [41]: 90% | mortality [42]: 93.3% | mortality [43]: 100% | mortality [44]: 93.3% | mortality [45]: 26.7% | mortality [46]: 20% | mortality [47]: 36.7% | mortality [48]: 56.7% | mortality [49]: 100% | mortality [50]: 100% | mortality [51]: 100% | mortality [52]: 93.3% | mortality [53]: 53.3% | mortality [54]: 73.3% | mortality [55]: 100% | mortality [56]: 36.7%
